≈ marks a conversion by molar mass, not a printed value.
Columns and labels:
[1] = Metabolic stability in intestinal S9 fraction, human; assay type: in vitro ADME; settings: for half-life at 2 μM: intestinal S9 fraction
Protocol: (§1) Blood plasma and S9 stability was studied as described previously ([8]). In brief, the compounds were incubated at 2 μM in hamster, rat, dog, monkey, or human plasma samples for up to 4 h at 37°C. For S9 stability, the compounds were incubated at 2 μM in hamster, rat, dog, monkey, or human intestinal and hepatic S9 fractions for up to 90 min at 37°C in the presence of NADPH and uridine 5′-diphosphoglucuronic acid trisodium salt (UDPGA) (Sigma-Adrich). The samples were analyzed by liquid chromatography coupled to triple-quadrupole mass spectrometry (LC-MS/MS).
(§2) The data (analyte-to-internal standard peak area ratio) were plotted on a semilog scale and fitted using an exponential fit. The half-life (t1/2) was determined assuming first-order kinetics.

[2] = Metabolic stability in hepatic S9 fraction, rat; assay type: in vitro ADME; settings: 2 μM
Protocol: as §1, §2

CatA = biological target: T1, CatA (Homo sapiens, UniProt P10619); experiment: Ester cleavage by CatA; assay type: biochemical; settings: for Amidate ester cleavage, specific activity: CatA, GS-6620-containing diastereomeric mixture was used
T1 construct: purified from peripheral blood mononuclear cells (PBMCs) according to a previously published procedure; from tissue; host or cells: peripheral blood mononuclear cells (PBMCs)
T1 sequence (P10619 29-480): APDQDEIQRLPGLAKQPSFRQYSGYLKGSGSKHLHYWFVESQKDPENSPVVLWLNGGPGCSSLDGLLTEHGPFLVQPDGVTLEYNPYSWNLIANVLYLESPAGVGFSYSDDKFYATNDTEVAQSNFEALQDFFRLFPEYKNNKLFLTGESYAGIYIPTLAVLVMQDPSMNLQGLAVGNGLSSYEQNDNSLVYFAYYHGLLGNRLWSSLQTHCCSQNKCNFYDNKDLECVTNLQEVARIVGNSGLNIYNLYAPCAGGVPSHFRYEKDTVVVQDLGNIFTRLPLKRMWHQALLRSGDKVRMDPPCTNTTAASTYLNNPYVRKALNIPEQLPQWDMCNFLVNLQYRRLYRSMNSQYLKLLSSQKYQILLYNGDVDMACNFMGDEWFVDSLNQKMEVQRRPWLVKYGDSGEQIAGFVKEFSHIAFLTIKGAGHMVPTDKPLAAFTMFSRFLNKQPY
Protocol: Biochemical assays studying prodrug cleavage have been described previously ([8]). In brief, the cleavages of GS2 by CATA, CES1, CES2, and HINT1 were assessed in vitro. The reaction substrates and products were monitored over time by high-performance liquid chromatography (HPLC).

HCV GT1a replicon = experiment: HCV GT1a replicon, stably transfected Huh-Lunet cells; assay type: cell-based, hepatitis C virus; settings: for EC50: Hepatitis C virus, 72 h, stably transfected Huh-Lunet cells, 3 days
Protocol: (§3) Primary hepatocytes from humans, hamsters, dogs, and monkeys were purchased from BioreclamationIVT in 12-well plates seeded at confluence (0.88 × 10^6 cells/well). Huh-Lunet cells were obtained from ReBlikon GmbH (Mainz, Germany) ([19]). Huh-1C was derived from a GT1a replicon clone in which HCV replication was cured. All Huh-Lunet- and Huh-1C-based replicon cell lines were cultured in Dulbecco's modified Eagles' medium (DMEM) with GlutaMAX (Invitrogen, Carlsbad, CA) supplemented with 10% fetal bovine serum (FBS; HyClone, Logan, UT) and 100 U/ml penicillin (Invitrogen). Replicon cell lines containing genotype 1a (H77) and 2a (JFH1) were created as previously reported ([20][–][22]). Caco-2 cells were maintained in DMEM with sodium pyruvate, GlutaMAX supplemented with 1% penicillin-streptomycin, 1% nonessential amino acids, and 10% FBS in an incubator set at 37°C, 90% humidity, and 5% CO2.
(§4) GT1a, GT1b, and GT2a are authentic subgenomic replicons of the indicated strain. Creation of these HCV replicons was reported previously ([7]).
(§5) The EC50s, defined as the concentration at which there was a measured 50% decrease in HCV replicon level, were determined in replicon assay as previously described ([24]). Briefly, replicon cells were seeded into 96-well plates. Compounds were serially diluted in DMSO at 200× final concentrations and then added to the assay plate. Luciferase expression was quantified after 3 days of incubation using a commercial luciferase assay (Promega, Madison, WI). Data were analyzed using GraphPad Prism 6.0 (La Jolla, CA).
(§6) X represents log of compound concentration and Y represents replicon replication as the percentage of DMSO control. EC50s were calculated as an average from at least three independent experiments.

HCV GT1b replicon [3] = experiment: HCV GT1b replicon, transiently transfected Huh-1C cells; assay type: cell-based, hepatitis C virus; settings: for EC50: Hepatitis C virus, GT1B, 72 h
Protocol: as §4
(§7) RNA was transcribed in vitro using a MEGAscript […] kit (Ambion, Austin, TX) and transfected into Huh-Lunet and −1C cells using published methods ([21], [22]).
as §5, §6

[4] = Metabolic stability in hepatic S9 fraction, hamster; assay type: in vitro ADME; settings: 2 μM
Protocol: as §1, §2

HCV GT2a replicon [5] = experiment: HCV GT2a replicon, transiently transfected Huh-1C cells; assay type: cell-based, hepatitis C virus; settings: for EC50: Hepatitis C virus, GT2A, 72 h
Protocol: as §4, §7, §5, §6

HCV GT2a replicon [6] = experiment: HCV GT2a replicon, stably transfected Huh-Lunet cells; assay type: cell-based, hepatitis C virus; settings: for EC50: Hepatitis C virus, 72 h, stably transfected Huh-Lunet cells, 3 days
Protocol: as §3, §4, §5, §6

in vitro = in vitro ADME; settings: 37°C, read-out: Plasma stability, half-life
Protocol: as §1, §2

[7] = Metabolic stability in intestinal S9 fraction, hamster; assay type: in vitro ADME
Protocol: as §1, §2

Kinetic solubility = assay type: physicochemical; settings: 37 °C, kinetic from dmso stock
Protocol: The samples were incubated at 37°C for 1 h, followed by centrifugation at 2,800 relative centrifugal force (RCF) for 30 min at room temperature. Thermodynamic solubility was determined with the crystalline-free base of GS-6620 or amorphous GS2 using the shaking flask method. The concentrations of the compounds in supernatants were determined by HPLC.

HCV GT1b replicon [8] = experiment: HCV GT1b replicon, stably transfected Huh-Lunet cells; assay type: cell-based, hepatitis C virus; settings: for EC50: Hepatitis C virus, 72 h, stably transfected Huh-Lunet cells, 3 days
Protocol: as §3, §4, §5, §6

[9] = Metabolic stability in hepatic S9 fraction, human; assay type: in vitro ADME; settings: 2 μM
Protocol: as §1, §2

[10] = Metabolic stability in intestinal S9 fraction, dog; assay type: in vitro ADME
Protocol: as §1, §2

[11] = 0.1 N HCl, simulated gastric fluid, HCl (pH 1.0)

CC(C)OC(=O)C(C)(C)N[P@](=O)(OC[C@H]1O[C@@](C#N)(c2ccc3c(N)ncnn23)[C@](C)(O)[C@@H]1O)Oc1ccccc1 [GS2]
stability in human intestinal S9 greater than GS-6620 [1]: 35 fold | half-life at 2 μM [1]: 9.5 h | Metabolic stability in hepatic S9 fraction, predicted hepatic extraction [2]: 86% | Amidate ester cleavage, specific activity (CatA): 385 pmol/min/µg | CatA activity lower than toward GS-6620-containing diastereomeric mixture (CatA; isopropyl ester cleavage): 11 fold | Fold (GS2/GS-6620) (HCV GT1a replicon; EC50 ratio, Huh-Lunet): 3.5 | EC50 (HCV GT1a replicon): 380 ± 150 nM | Fold (GS2/GS-6620) (HCV GT1b replicon [3]; EC50 ratio, GT1b, Huh-1C): 3.1 | EC50 (HCV GT1b replicon [3]): 110 ± 20 nM | Metabolic stability in hepatic S9 fraction, predicted hepatic extraction [4]: 93% | Fold (GS2/GS-6620) (HCV GT2a replicon [5]; EC50 ratio, GT2a, Huh-1C): 2.3 | EC50 (HCV GT2a replicon [5]): 61 ± 8 nM | Fold (GS2/GS-6620) (HCV GT2a replicon [6]; EC50 ratio, GT2a, Huh-Lunet): 50 | EC50 (HCV GT2a replicon [6]; GT2a): 25000 nM | half-life at 2 μM (in vitro; dog plasma): > 10 h | half-life at 2 μM (in vitro; hamster plasma): > 10 h | half-life at 2 μM (in vitro; human plasma): > 10 h | half-life at 2 μM (in vitro; monkey (cynomolgus) plasma): > 10 h | half-life at 2 μM (in vitro; rat plasma): 0.0833 h | half-life at 2 μM [7]: 1.12 h | solubility kinetic at 1 h (Kinetic solubility; [11]): > 100 µM | solubility kinetic at 1 h (Kinetic solubility; aqueous buffer, PBS (pH 7.0)): > 100 µM | Fold (GS2/GS-6620) (HCV GT1b replicon [8]; EC50 ratio, Huh-Lunet): 7.2 | EC50 (HCV GT1b replicon [8]): 2200 nM | Metabolic stability in hepatic S9 fraction, predicted hepatic extraction [9]: 87% | half-life at 2 μM [10]: 9.17 h

CC(C)OC(=O)[C@H](C)N[P@](=O)(OC[C@H]1O[C@@](C#N)(c2ccc3c(N)ncnn23)[C@](C)(O)[C@@H]1OC(=O)C(C)C)Oc1ccccc1 [GS-6620, reference compound]
half-life at 2 μM [1]: 0.283 h | Metabolic stability in hepatic S9 fraction, predicted hepatic extraction [2]: 97% | Amidate ester cleavage, specific activity (CatA): 4,163 pmol/min · μg | EC50 (HCV GT1a replicon): 110 ± 50 nM | EC50 (HCV GT1b replicon [3]): 35 ± 15 nM | Metabolic stability in hepatic S9 fraction, predicted hepatic extraction [4]: 97% | EC50 (HCV GT2a replicon [5]): 27 ± 10 nM | EC50 (HCV GT2a replicon [6]; GT2a): 500 ± 160 nM | difference in activity across the 2a replicons (HCV GT2a replicon [6]; Huh-Lunet vs Huh-1C 2a replicons): ≤ 19 fold | half-life at 2 μM (in vitro; dog plasma): 7.17 h | half-life at 2 μM (in vitro; hamster plasma): 2 h | half-life at 2 μM (in vitro; human plasma): 6.17 h | half-life at 2 μM (in vitro; monkey (cynomolgus) plasma): 1.33 h | half-life at 2 μM (in vitro; rat plasma): < 0.0333 h | half-life at 2 μM [7]: < 0.0333 h | solubility kinetic at 1 h (Kinetic solubility; [11]): 87 µM (≈ 56.1 µg/mL) | solubility kinetic at 1 h (Kinetic solubility; aqueous buffer, PBS (pH 7.0)): 46 µM (≈ 29.7 µg/mL) | EC50 (HCV GT1b replicon [8]): 300 ± 140 nM | Metabolic stability in hepatic S9 fraction, predicted hepatic extraction [9]: 93% | half-life at 2 μM [10]: 0.55 h
